Assays:
TE-1 = experiment: CCK-8 cell viability assay; type: cell-based; settings: Homo sapiens; TE-1 cells, CCK-8, 72 hours; read-out: IC50, proliferation inhibition
Procedure: (§1) Cell viability was measured using Cell Counting Kit-8 (Dojindo, Japan) according to the manufacturer's instructions. In short, cells were inoculated in a 96-well plate at 3000 to 4000 cells/well in the presence of a single drug or a combination of drugs for 72 hours. After 72 hours, CCK-8 reagent (10 μL/well) was added and incubated at 37° C. for 1-2 hours, and absorbance readings at 450 nm were obtained. The IC50 values were calculated by using GraphPad Prism version 6.0.0 (GraphPad Software, San Diego, Calif. USA) for Windows. […] The expression difference of FAK gene between normal esophageal tissue and esophageal cancer tissue was determined by analyzing the TCGA database source information in the GEPIA database (http://gepia.cancer-pku.cn/), and the correlation between the FAK gene and the EGFR gene in esophageal cancer was determined by analyzing the TCGA database source information using the Pearson test. The basic protein expression levels for the following proteins in 6 esophageal cancer cell lines (TE-10, TE-1, YES-2, KYSE-520, KYSE-510, KYSE-150) were detected by Western blot method: […]

KYSE-510 = experiment: CCK-8 cell viability assay; type: cell-based; settings: Homo sapiens; KYSE-510 cells, CCK-8, 72 hours; read-out: IC50, proliferation inhibition
Procedure: as §1

TE-10 = experiment: CCK-8 cell viability assay; type: cell-based; settings: Homo sapiens; TE-10 cells, CCK-8, 72 hours; read-out: IC50, proliferation inhibition
Procedure: as §1

[1] = tested on: phosphorylated-FAK (p-FAK, Tyr397); experiment: Western blot, KYSE-150 and KYSE-520 cells; type: cell-based; settings: KYSE-150 (1 μM Compound 5, 1 μM Ibrutinib) and KYSE-520 (1 μM Compound 5, 0.5 μM Ibrutinib), 24 hours
Procedure: (§2) The cells were lysed on ice with 1× cell lysis buffer containing 1% protease inhibitor (PMSF) and 1% phosphokinase inhibitor for 30 minutes, centrifuged at 12000 rpm and 4° C. for 15 minutes, and the supernatant protein lysate was collected. The protein concentration was measured by BCA protein concentration detection kit. The cell protein lysates (20 to 50 μg) were separated using 8-12% SDS-PAGE electrophoresis. The separated proteins were transferred to a PVDF membrane. The PVDF membrane was blocked with 5% BSA buffer at room temperature for 30 minutes to 1 hour, and then incubated overnight on a 4° C. shaker with 1× TBST containing primary antibody. The redundant primary antibody was eluted, and the membrane was washed 3 times with 1× TBST, 5 to 10 minutes for each time. The protein band membrane was incubated with horseradish peroxidase-labeled secondary antibody dilution for 1 hour at room temperature, and the membrane was washed 3 times with 1× TBST, 5 to 10 minutes for each time. The signal generation and detection were performed using an ECL chemiluminescence ultrasensitive colorimetric kit and a chemiluminescence imaging system. The primary antibodies used in this experiment included: EGFR, (CST, Cat.4267S); phosphorylated EGFR (p-EGFR (Tyr1068)), (CST, Cat.3777T); FAK, (CST, Cat.3285S); phosphorylated FAK (p-FAK (Tyr397)), (CST, Cat.8556T); AKT, (CST, Cat.4685S); phosphorylated p-AKT (Ser473), (CST, Cat.9271S); ERK, (CST,Cat.4695S); phosphorylated ERK (p-ERK (Thr202/Tyr204)), (CST, Cat.4370T); phosphorylated MEK (p-MEK (Ser217/221)), (CST, Cat.9121S);BTK, (Immunoway, Cat. YM1294); C-Myc, (CST, Cat. 5605); phosphorylated C-Myc, (CST, Cat. 13748); Cyclin B1 (CST, Cat. 12231S), Cylin D1 (CST, Cat.2978S), GAPDH (ABGENT, Cat.AM1020B). The secondary antibodies used in this experiment included goat-anti-rabbit secondary antibody (Senta, Cat. Sc-2004) and goat-anti-mouse secondary antibody (Senta, Cat. Sc-2005).
(§3) (1) The experimental method was as described in the items (1), (2), (5) of Example 2. […] The changes in signaling pathway of related proteins were determined by Western blotting assay.

YES-2 cells [2] = experiment: Colony formation assay; type: cell-based; settings: 0.5 μM Compound 5, 0.25 μM Ibrutinib or both, 12 days
Procedure: (§4) Growth inhibition was detected by colony formation assay. ESCC cells were inoculated in 6-well plates at about 500 cells/well, and treated with different inhibitors or DMSO, and then replaced with fresh medium containing with different inhibitors or DMSO every 3 to 4 days. The cells were stained with crystal violet (V5265, Sigma, St Louis, Mo., USA) on day 12. After washing twice with PBS, the cells were fixed with 1% paraformaldehyde and incubated for 15 minutes at room temperature. The cells were then washed twice with PBS and stained with 0.5% crystal violet for 15 minutes at room temperature.
as §3

KYSE-150 cells = experiment: Colony formation assay; type: cell-based, human; settings: 1 μM Compound 5, 1 μM Ibrutinib or both, 12 days
Procedure: as §4, §3

YES-2 cells [3] = experiment: Cell migration (Transwell) assay; type: cell-based; settings: 0.5 μM Compound 5, 0.25 μM Ibrutinib or both
Procedure: The culture medium was sucked into a chamber of Transwell (PC membrane, pore size 8.0 μm, Corning, N.Y., USA), and then the chamber was placed in a 24-well plate containing 750 μl of 50% FBS medium. After incubation for 24 to 30 hours, the chamber was taken out, the medium in the chamber was sucked out, and the redundant cells in the chamber were wiped off with a cotton swab. The chamber was placed in paraformaldehyde to perform fixation for 15 minutes, and staining was performed with 0.5% crystal violet at room temperature for 15 minutes. Cell migration activity was described as a relative number of the cells that exited the chamber.
as §3

Cyclin B1 = experiment: Western blot, KYSE-150 and KYSE-520 cells; type: cell-based; settings: KYSE-150 (1 μM Compound 5, 1 μM Ibrutinib) and KYSE-520 (1 μM Compound 5, 0.5 μM Ibrutinib), 24 hours
Procedure: as §2, §3

[4] = tested on: phosphorylated MEK (p-MEK, Ser217/221); experiment: Western blot, KYSE-150 and KYSE-520 cells; type: cell-based; settings: KYSE-150 (1 μM Compound 5, 1 μM Ibrutinib) and KYSE-520 (1 μM Compound 5, 0.5 μM Ibrutinib), 24 hours
Procedure: as §2, §3

[5] = tested on: phosphorylated ERK (p-ERK, Thr202/Tyr204); experiment: Western blot, KYSE-150 and KYSE-520 cells; type: cell-based; settings: KYSE-150 (1 μM Compound 5, 1 μM Ibrutinib) and KYSE-520 (1 μM Compound 5, 0.5 μM Ibrutinib), 24 hours
Procedure: as §2, §3

Cyclin D1 = experiment: Western blot, KYSE-150 and KYSE-520 cells; type: cell-based; settings: KYSE-150 (1 μM Compound 5, 1 μM Ibrutinib) and KYSE-520 (1 μM Compound 5, 0.5 μM Ibrutinib), 24 hours
Procedure: as §2, §3

[6] = tested on: phosphorylated EGFR (p-EGFR, Tyr1068); experiment: Western blot, KYSE-150 and KYSE-520 cells; type: cell-based; settings: KYSE-150 (1 μM Compound 5, 1 μM Ibrutinib) and KYSE-520 (1 μM Compound 5, 0.5 μM Ibrutinib), 24 hours
Procedure: as §2, §3

Compound: Cc1cc(Nc2ncc(Cl)c(Nc3ccccc3S(=O)(=O)C(C)C)n2)c(OC(C)C)cc1C1=CCN(C2CCOCC2)CC1 [Compound 5, 5-chloro-N^2-(2-isopropoxy-5-methyl-4-(1-(tetrahydro-2H-pyran-4-yl)-1,2,3,6-tetrahydropyridin-4-yl)phenyl)-N^4-(2-(isopropylsulfonyl)phenyl)pyrimidine-2,4-diamine]
- IC50 (TE-1): 2.21 µM
- IC50 (KYSE-510): 2.27 µM
- IC50 (TE-10): 2.6 µM
- protein expression level of phosphorylated-FAK (p-FAK, Tyr397) [1]: significantly decrease
- inhibitory effect on cell clone formation (YES-2 cells [2]): stronger inhibitory effects
- inhibitory effect on cell clone formation (KYSE-150 cells): stronger inhibitory effects
- cell migration (YES-2 cells [3]): cell migration in certain extent

Compound: C=CC(=O)N1CCC[C@@H](n2nc(-c3ccc(Oc4ccccc4)cc3)c3c(N)ncnc32)C1 [Ibrutinib]
- IC50 (TE-1): 9.88 µM
- IC50 (KYSE-510): 4.42 µM
- IC50 (TE-10): 3.01 µM
- protein expression level of Cyclin B1 (Cyclin B1): significantly decrease
- protein expression level of phosphorylated MEK (p-MEK, Ser217/221) [4]: significantly decrease
- protein expression level of phosphorylated ERK (p-ERK, Thr202/Tyr204) [5]: significantly decrease
- protein expression level of Cyclin D1 (Cyclin D1): significantly decrease
- protein expression level of phosphorylated EGFR (p-EGFR, Tyr1068) [6]: significantly decrease
- cell migration (YES-2 cells [3]): cell migration in certain extent

— US20220117964A1, “COMBINATION OF FAK INHIBITOR AND BTK INHIBITOR FOR TREATING A DISEASE” (ASCENTAGE PHARMA (SUZHU) CO., LTD., priority 2019, published 2022)
